# Results reported in PubChem BioAssay (NCI).
# Where “and” joins values, the source holds several entries; their conditions need not be identical. Identical values can stand only once.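 How tested: cells in 96-well plates exposed to compound for 48 hours at five concentrations. The concentration for 50% growth inhibition is given as GI50. The concentration for full growth arrest is given as TGI.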
# Columns and labels:
# Assay in all cases: NCI tumour cell line growth inhibition, 48 h
# [1] = test system: HOP-18 NSCLC
# [2] = test system: XF 498 CNS
# [3] = test system: DMS 273 small cell lung
# [4] = test system: MDA-N
# [5] = test system: M19-MEL melanoma
# [6] = test system: DLD-1 colon
# [7] = test system: LXFL 529 NSCLC
# [8] = test system: KM20L2 colon
# [9] = test system: RXF-631 renal
# [10] = test system: SN12K1 renal
# [11] = test system: P388 leukemia
# [12] = test system: P388/ADR leukemia
Structure (SMILES),TGI [1],TGI [2],TGI [3],TGI [4],TGI [5],TGI [6],TGI [7],TGI [8],TGI [9],other results
COc1ccc2c(c1)[C@@H](NC(C)=O)CCc1cc(OC)c(OC)c(OC)c1-2,> 100 µM,16.2 µM,> 100 µM,< 0.0204 µM,> 100 µM,> 100 µM,> 100 µM,,,
CC(=O)OCC1C(=O)OCC1C(=O)N1Cc2cc3ccccc3nc2C1 (stereo unspecified),10.2 µM,4.51 µM,17.8 µM,13.1 µM,21.2 µM,3.37 µM,5.22 µM,11 µM,,
O=C(O)/C=C/c1ccc(O)c(O)c1,> 100 µM,,> 100 µM,,> 100 µM,> 100 µM,> 100 µM,> 100 µM,> 100 µM,
Cc1c(C(Cc2ccccc2N(C)C(=O)/C=C\C(=O)O)c2c[nH]c3ccccc23)c2ccccc2n1C (stereo unspecified),,36.9 µM,32.7 µM,,30.5 µM,35.2 µM,26 µM,32.7 µM,27.9 µM,
COc1ccc(C(=O)C(C(=O)CCC(=O)Nc2ccc(Cl)c(Cl)c2)c2ccc(OC)cc2)cc1 (stereo unspecified),> 100 µM,> 100 µM,> 100 µM,,> 100 µM,> 100 µM,> 100 µM,> 100 µM,> 100 µM,
O=C([CH-]C(=O)c1ccccc1)c1ccccc1.O=C([CH-]C(=O)c1ccccc1)c1ccccc1.O=C([CH-]C(=O)c1ccccc1)c1ccccc1.[Ga+3],> 100 µM,,,,,,,> 100 µM,,GI50 [1]: 39.7 µM; GI50 [8]: 59.2 µM
COc1ccc(C2COc3c(ccc(OC)c3OC)C2=O)cc1OC (stereo unspecified),> 100 µM,> 100 µM,,,> 100 µM,> 100 µM,> 100 µM,> 100 µM,,
CC[C@@]1(OP(=O)(O)O)C(=O)OCc2c1cc1n(c2=O)Cc2cc3ccccc3nc2-1,44.4 µM,2.21 µM and 9.34 µM,0.194 µM,4.59 µM,6.47 µM and 2.05 µM,,70.8 µM,,,GI50 [1]: 0.408 µM; GI50 [8]: 0.458 µM; GI50 [2]: 1.88 µM; GI50 [5]: 0.25 µM; GI50 [6]: 2.56 µM
Cc1ccc(S(=O)c2ccccc2[N+](=O)[O-])cc1 (stereo unspecified),,,> 100 µM,,> 100 µM,> 100 µM,,,> 100 µM,
Cn1cc(C2NC(=O)c3ccccc3N2)c2ccccc21 (stereo unspecified),,,,0.591 µM,,,,,,
CN(C)CC1CC/C(=C\c2ccc(Cl)c(Cl)c2)C1=O (stereo unspecified),> 100 µM,> 65.4 µM,> 51.9 µM,,> 51.2 µM,50.1 µM,27 µM,> 50.2 µM,,
Cc1ccc(N)c(S)c1,,,,28.2 µM,,,,,,
NC1=C(O)c2cccc3cccc(c23)C1=O,> 100 µM,,> 100 µM,,> 100 µM,> 100 µM,> 100 µM,> 100 µM,> 100 µM,
C[N+]1([O-])C2CCC1CC(OC(=O)C(CO)c1ccccc1)C2 (stereo unspecified),,,,> 100 µM,,,,,,
O=C(O)/C=C\C(=O)Nc1ccc2c(c1)-c1ccccc1C2,,,,> 100 µM,,,,,,
N#CC(C(=O)CCCC(=O)Nc1ccccc1[N+](=O)[O-])c1c(Cl)cccc1Cl (stereo unspecified),> 100 µM,> 100 µM,> 100 µM,,> 100 µM,> 100 µM,> 100 µM,> 100 µM,> 100 µM,
O=S1OC(c2ccccc2)(c2ccccc2)C(c2ccccc2)(c2ccccc2)O1,> 100 µM,> 100 µM,> 100 µM,,> 100 µM,> 100 µM,> 100 µM,> 100 µM,> 100 µM,
Cc1c2cnccc2c(C)c2c1c1ccccc1n2CCOC(=O)c1ccccc1,> 100 µM,5.64 µM,18 µM,> 100 µM,31.8 µM,49.3 µM,,50.5 µM,,TGI [10]: 26.6 µM; TGI [11]: 41.4 µM; TGI [12]: 35.1 µM

Structure (SMILES),TGI [1],TGI [2],TGI [3],TGI [4],TGI [5],TGI [6],TGI [7],TGI [8],TGI [9],other results
O=c1c2ccccc2nc(-c2cccc([N+](=O)[O-])c2)n1O,,,,> 100 µM,,,,,,
C=C(CO)C(=O)OC1CC(=C)C2CC(O)C(C)C2C2OC(=O)C(=C)C12 (stereo unspecified),,,,38 µM,,,,,,
COc1nc(NC2OC(COC(C)=O)C(OC(C)=O)C(OC(C)=O)C2OC(C)=O)c(N=CC=Nc2c(NC3OC(COC(C)=O)C(OC(C)=O)C(OC(C)=O)C3OC(C)=O)nc(OC)[nH]c2=O)c(=O)[nH]1 (stereo unspecified),> 100 µM,,,,> 100 µM,> 100 µM,> 100 µM,> 100 µM,,
CN(C)CCC(N)(P(=O)([O-])[O-])P(=O)([O-])[O-].N.N.[Pt+2],> 100 µM,,> 100 µM,,,> 100 µM,> 100 µM,> 100 µM,,GI50 [1]: > 100 µM; GI50 [8]: > 100 µM; GI50 [3]: > 100 µM; GI50 [6]: > 100 µM; GI50 [7]: > 100 µM
C=CC1(C)CCC2C(=CCC3C2(C)CC(O)C(O)C3(C)COC2OC(CO)C(O)C(O)C2O)C1 (stereo unspecified),,,,> 100 µM,,,,,,
C/C(=N/NC(=O)c1ccccc1S(N)(=O)=O)C(CN1CCCCC1)C(C1=C(O)C2C=CC=CC2OC1=O)c1ccccc1 (stereo unspecified),> 100 µM,> 100 µM,,,> 100 µM,> 100 µM,> 100 µM,> 100 µM,> 100 µM,
Cc1cc(N(CCC#N)CCC#N)ccc1/C=C(\NC(=O)/C=C/c1ccccc1)C(=O)N=[N+]=[N-],,69.9 µM,> 100 µM,,> 100 µM,> 100 µM,> 100 µM,> 100 µM,,
C/C(CN1C(=O)c2ccccc2C1=O)=N\NS(=O)(=O)c1ccc2ccccc2c1,> 100 µM,,> 100 µM,,> 100 µM,> 100 µM,> 100 µM,> 100 µM,,
O=C(CCc1nnc2s/c(=C\c3ccc([N+](=O)[O-])cc3)c(=O)n12)Nc1ccc(Cl)c(Cl)c1,,45.5 µM,54.4 µM,,> 100 µM,46.5 µM,26.2 µM,> 100 µM,> 100 µM,
NC(N)NCCCc1cn2c(n1)C1CCCN1C(=O)C2Cc1ccccc1 (stereo unspecified),,> 100 µM,> 100 µM,,> 100 µM,> 100 µM,> 100 µM,> 100 µM,> 100 µM,
O=P1(NCCCl)OCCCN1CCCl (stereo unspecified),124 µM,436 µM,410 µM,> 500 µM,440 µM,431 µM,> 500 µM,434 µM,,TGI [10]: 430 µM; TGI [11]: 293 µM; TGI [12]: 315 µM
CC(C)(CN1CCCCC1)C(=O)/C=C/c1ccccc1,,29.9 µM,36.5 µM,,52.3 µM,54.1 µM,34.7 µM,28.1 µM,59 µM,
O=C1C2C3CC4C5C3C1C5C1(SCCS1)C42 (stereo unspecified),> 100 µM,,> 100 µM,,> 100 µM,> 100 µM,> 100 µM,> 100 µM,,
CCN(CC)CC(=O)NC1c2ccccc2Oc2ccccc21,,> 100 µM,> 100 µM,,> 100 µM,> 100 µM,> 100 µM,> 100 µM,,
C[C@@H]1C(=O)CC2C(C)(C)CCC[C@]2(C)[C@@]12CC[C@]1(C=COC1)O2 (stereo partly specified),> 100 µM,,> 100 µM,,> 100 µM,,,> 100 µM,,
O=C(CCc1n[nH]c(=S)o1)Nc1cc(Cl)ccc1Cl,> 100 µM,,36.1 µM,,> 100 µM,> 100 µM,> 100 µM,> 100 µM,,
CC1CCCCCC(=O)c2c(O)cc(O)cc2CC(=O)O1 (stereo unspecified),,,,> 100 µM,,,,,,
CS(=O)(=O)OCCN(CCOS(C)(=O)=O)c1ccc(C=Nc2ccc(-c3csc(COc4ccccc4)n3)cc2)cc1,19.2 µM,6.85 µM,14.5 µM,31 µM,36 µM,29.3 µM,25.3 µM,14.7 µM,,
